Test [1] deals with stomach. The test can be described thus: Gastric mucosal protecting activity (ulcer caused by 0.4N-HCl+50% ethanol). It counts as in vivo, rat (male Donryu). The note with it: 30 minutes before necrotizing substance. On the procedure: Male Donryu rats (150 to 250 g) which had been caused to fast for 24 hours were used. The test compound was administered in a dose of 10 mg/kg. p.o., and 30 minutes later, a necrotizing substance (0.4N-HCl+50% ethanol) was administered orally in a dose of 5 ml/kg. One hour after the administration of the necrotizing substance, the stomach was dissected out and fixed with formalin. The area of ulcer which occurred was measured, and by comparison with a control group, the percent inhibition of the test compound was determined.

The target of test [2] is T1, histamine H2 receptor (Cavia porcellus, UniProt P47747).
T1 construct: The right atrium was isolated in the Krebs-Henselite solution; from tissue; host or cells: isolated right atrium of male Hartley-strain guinea pigs
The test can be described thus: Histamine H2 antagonizing activity (isolated guinea pig right atrium, histamine dose-response). Also noted: species or system guinea pig (Hartley-strain). The note with it: 32° C., test compound 1×10^-6, 1×10^-7 M, 10 min before histamine, Van Rossum method, read-out: pA2 (converted).
Experimental: Hartley-strain guinea pigs (male, weight 300 to 350 g) were killed by a blow on the head, and the heart was extracted. The right atrium was isolated in the Krebs-Henselite solution through which a mixed gas (O2 95%, CO2 5%) was circulated. The right atrium was suspended in an organ bath (30 ml) filled with the Krebs-Henselite solution kept at 32° C. The mixed gas was circulated through the organ bath, and a diastolic tension of 1 g was maintained. Contraction of the right atrium was recorded by a force-displacement transducer, and the heart rate was counted by a heart rate meter interlocked with the transducer.
Histamine (used in the form of dihydrochloride) was added cumulatively to the organ bath in a concentration of 1×10^-8 M to 3×10^-5 M. Thus, the dose-response curve of histamine was obtained. The inside of the organ bath was washed several times, and the test compound (1×10^-6, 1×10^-7 M) was added to the organ bath. Ten minutes later, the dose-response curve of histamine in the presence of the test compound was obtained.
The pA2 value of the test compound was determined from the first histamine dose-response curve and the histamine dose-response curve in the presence of the test compound by the method of J. M. Van Rossum (Arch. Int. Pharmacodyn. Ther., 143-299, 1963).

T1 sequence (P47747 whole entry): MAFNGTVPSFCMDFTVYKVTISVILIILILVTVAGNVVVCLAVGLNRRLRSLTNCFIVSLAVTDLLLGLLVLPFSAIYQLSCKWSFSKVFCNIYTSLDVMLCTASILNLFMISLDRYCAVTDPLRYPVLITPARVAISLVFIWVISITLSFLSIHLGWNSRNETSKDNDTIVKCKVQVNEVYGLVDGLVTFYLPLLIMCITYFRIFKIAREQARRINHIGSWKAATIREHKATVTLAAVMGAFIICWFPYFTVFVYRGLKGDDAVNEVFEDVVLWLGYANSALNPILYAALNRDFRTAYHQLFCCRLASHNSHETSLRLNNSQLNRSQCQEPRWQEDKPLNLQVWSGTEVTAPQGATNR

Turning to `O=C(CSCc1ccco1)NCCCOc1cccc(CN2CCCCC2)c1` [Example 12, N-(3-[3-(piperidinomethyl)phenoxy]propyl)-2-(furfurylthio)acetamide], the “Percent inhibition (area of ulcer, vs control group)” value (from here on “Percent inhibition”) in test [1] (10 mg/kg p.o.) is listed as 63%. `O=C(C[S+]([O-])Cc1ccco1)NCCCOc1cccc(CN2CCCCC2)c1` (centres unmarked) [Example 13, N-{3-[3-(piperidinomethyl)phenoxy]propyl}-2-(furfurylsulfinyl)acetamide]: in test [2], the Kb is 79.4 nM. In addition, the “Percent inhibition” value in test [1] (10 mg/kg p.o.) was 72%. Consider `CN/C(=N/CCSCc1nc[nH]c1C)NC#N` [cimetidine, reference compound], for which the “Percent inhibition” value in test [1] (10 mg/kg p.o.) is listed as “No inhibition was observed”; in test [1] (30 mg/kg p.o.) it was 11%.

For the origin of these results see US4988828A, “Phenoxypropyl derivatives” (Fujirebio Kabushiki Kaisha, priority 1987, dated 1991).
